# Measured values as given in US10828301B2, “2,4-pyrimidinediamine compounds and their uses” (Rigel Pharmaceuticals, Inc, priority 2002, dated 2020).
# What was measured:
# [1] = Oral bioavailability / pharmacokinetics in rats; format: in vivo; settings: rat, in vivo
# Procedure: Over 50 2,4-pyrimidinediamine compounds of the invention were tested for oral bioavailability. For the study, compounds were dissolved in various vehicles (e.g. PEG 400 solution and CMC suspension) for intravenous and oral dosing in the rats. Following administration of the drug, plasma samples were obtained and extracted. The plasma concentrations of the compounds were determined by high performance liquid chromatography/tandem mass spectrometry (LC/MS/MS) methods. Pharmacokinetic analyses were performed based on the plasma concentration data. The pharmacokinetic parameters of interest include Clearance (CL), Volume of distribution at steady-state (Vss), terminal half-life (t1/2), and oral bioavailability (% F).
# [2] = in vitro chromosomal aberration assay; format: cell-based
# [3] = test system: cultured human mast cells (CHMC); assay: CHMC high cell density IgE activation: degranulation (hexos, tryptase, histamine), leukotriene (LTC4) and cytokine (TNFalpha, IL-13) assays; format: cell-based; settings: anti-IgE activation
# Procedure: After sensitizing, cells are counted, pelleted (1000 rpm, 5-10 minutes), and resuspended at 1-2×10^6 cells/ml in MT buffer. Add 100 ul of cell suspension to each well and 100 ul of compound dilutions. The final vehicle concentration is 0.5% DMSO. Incubate at 37° C. (5% CO2) for 1 hour. After 1 hour of compound treatment, stimulate cells with 6× anti-IgE. Mix wells with the cells and allow plates to incubate at 37° C. (5% CO2) for one hour. After 1 hour incubation, pellet cells (10 minutes, 1000 RPM) and collect 200 ul per well of the supernatant, being careful not to disturb pellet. Place the supernatant plate on ice. During the 7-hour step (see next) perform tryptase assay on supernatant that had been diluted 1:500. Resuspend cell pellet in 240 ul of CM media containing 0.5% DMSO and corresponding concentration of compound. Incubate CHMC cells for 7 hours at 37° C. (5% CO2). After incubation, pellet cells (1000 RPM, 10 minutes) and collect 225 ul per well and place in −80° C. until ready to perform ELISAS. ELISAS are performed on appropriately diluted samples (determined empirically for each donor cell population so that the sample measurement falls within the standard curve) following the supplier's instructions.
# [4] = format: in vivo; settings: rat, oral doses of 50, 150 and 300 mg/kg given for 32 days
# [5] = test system: basophils in whole human peripheral blood; assay: Basophil IgE activation: histamine release assay; format: cell-based; settings: Homo sapiens, anti-IgE activation
# Procedure: (§1) The basophil activation assay was carried out using whole human peripheral blood from donors allergic to dust mites with the majority of the red blood cells removed by dextran sedimentation. Human peripheral blood was mixed 1:1 with 3% dextran T500 and RBCs were allowed to settle for 20-25 min. The upper fraction was diluted with 3 volumes of D-PBS and cells were spun down for 10 min at 1500 rpm, RT. Supernatant was aspirated and cells were washed in an equal volume MT-buffer. Finally, cells were resuspended in MT-buffer containing 0.5% DMSO in the original blood volume. 80 uL cells were mixed with 20 uL compound in the presence of 0.5% DMSO, in triplicate, in a V-bottom 96-well tissue culture plate. A dose range of 8 compound concentrations was tested resulting in a 10-point dose response curve including maximum (stimulated) and minimum (unstimulated) response. […] The cells were stimulated for 30 minutes at 37° C., 5% CO2. The plate was spun for 10 min at 1500 rpm at room temperature and 80 uL the supernatant was harvested for histamine content analysis using the histamine ELISA kit supplied by Immunotech. The ELISA was performed according to supplier's instructions.
# [6] = test system: basophils in whole human peripheral blood; assay: Basophil ionomycin activation: histamine release assay; format: cell-based; settings: Homo sapiens
# Procedure: Assays for ionomycin-induced basophil cell degranulation were carried out as described for the Basophil IgE or Dustmite Activation Assay (Section 6.4.6, supra), with the exception that following incubation with compound, cells were stimulated with 20 μl of 2 μM ionomycin.
# [7] = test system: basophils in whole human peripheral blood; assay: Basophil dustmite activation: histamine release assay; format: cell-based; settings: read-out: Basophils Dust mite Histmine IC50
# Procedure: as §1, with “The plate was spun for 10 min at 1500 rpm at room temperature and 80 uL the supernatant was harvested for histamine content analysis using the histamine ELISA kit supplied by Immunotech.” left out
# [8] = test system: cultured human mast cells (CHMC); assay: CHMC low cell density ionomycin activation: tryptase assay; format: cell-based; settings: Homo sapiens, Mast cell, Low Density CHMC, ionomycin activation, tryptase readout; read-out: CHMC Ionomycin Tryptase
# [9] = test system: cultured human mast cells (CHMC); assay: CHMC low cell density IgE activation: tryptase and LTC4 assays; format: cell-based; settings: Homo sapiens, Mast cell, Low Density CHMC, anti-IgE activation, tryptase readout; read-out: CHMC anti-IgE Tryptase
# Procedure, shortened: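 Degranulation measured after 30 min anti-IgE challenge at 37° C of CHMC plated at 1000-1500 cells/well following 1 h preincubation. Readouts: LTC4 by ELISA on donor-specific diluted supernatants, and tryptase activity from a 30 min room-temperature substrate reaction.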
# [10] = test system: Jurkat cells; assay: Jurkat toxicity: Cell Titer Glo assay; format: cell-based; settings: Homo sapiens, 18 hours
# Procedure: Seed 50 μl cells (1×10^6/ml) into each well containing 50 μl compound. […] Shake plates for 1 minute to mix cells and compound. Incubate plates at 37° C. […] Next day, harvest 50 μl cells from each well, add to 50 μl Cell Titer Glo reagent ([…]). Shake plates for 1 minute. Read on luminometer.
# [11] = test system: B-cell line BJAB; assay: BJAB toxicity: Cell Titer Glo assay; format: cell-based; settings: Homo sapiens, 18 hours
# Procedure: Seed 50 μl cells (1×10^6/ml) into each well containing 50 μl compound. The final vehicle concentration is 0.5% DMSO, 1.5% MeOH. Shake plates for 1 minute to mix cells and compound. Incubate plates at 37° C. (5% CO2) for 18 hours. Next day, harvest 50 μl cells from each well, add to 50 μl Cell Titer Glo reagent ([…]). Shake plates for 1 minute. Read on luminometer.
# [12] = IL-13, read-out: CHMC high density IL-13
# [13] = LTC4, read-out: CHMC high density LTC4
# [14] = TNF-alpha, read-out: CHMC high density TNF-alpha
# [15] = hexosaminidase release, read-out: CHMC high density hexos
# [16] = histamine release, read-out: CHMC high density histamine
# [17] = tryptase release, read-out: CHMC high density tryptase
"IC50 [3, 12] [nM]","IC50 [3, 13] [nM]","IC50 [3, 14] [nM]","IC50 [3, 15] [nM]","IC50 [3, 16] [nM]","IC50 [3, 17] [nM]",IC50 [8] [nM],IC50 [9] [nM],Structure (SMILES),metabolic stability in pharmacokinetics studies [1],clastogenic potential [2],tolerability [4],IC50 [5] [nM],IC50 [6] [nM],IC50 [7] [nM],IC50 [10] [nM],IC50 [11] [nM]
> 10000,,1880,1110,1330,1230,> 10000,138,"O=C(NCCO)c1cc2cc(Nc3ncc(F)c(Nc4cccc(O)c4)n3)ccc2o1 [Compound R926497, 5-Fluoro-N4-(3-hydroxyphenyl)-N2-[2-(N-2-hydroxyethylamino)carbonylbenzofuran-5-yl]-2,4-pyrimidinediamine]",,,,270,> 10000,205,,
,< 220,> 2000,647,,1210,> 10000,930,"OCCOc1cccc(Nc2ncc(F)c(Nc3cccc(OCCO)c3)n2)c1 [Compound R935075, N2,N4-Bis[3-(2-hydroxyethoxy)phenyl]-5-fluoro-2,4-pyrimidinediamine]",,,,,,,> 4330,> 4330
1780,118,2250,577,586,642,> 10000,132,"Cc1cc(Nc2ncc(F)c(Nc3cccc(O)c3)n2)cc(Cl)c1O [Compound R940233, N2-(3-Chloro-4-hydroxy-5-methylphenyl)-5-fluoro-N4-(3-hydroxyphenyl)-2,4-pyrimidinediamine]",,,,,,,> 4330,> 4330

Structure (SMILES),"IC50 [3, 12] [nM]","IC50 [3, 13] [nM]","IC50 [3, 14] [nM]","IC50 [3, 15] [nM]","IC50 [3, 16] [nM]","IC50 [3, 17] [nM]",IC50 [8] [nM],IC50 [9] [nM],metabolic stability in pharmacokinetics studies [1],clastogenic potential [2],tolerability [4],IC50 [5] [nM],IC50 [6] [nM],IC50 [7] [nM],IC50 [10] [nM],IC50 [11] [nM]
"Nc1cccc(Nc2ncc(F)c(Nc3cccc(N)c3)n2)c1 [Compound R921302, N2,N4-Bis(3-aminophenyl)-5-fluoro-2,4-pyrimidinediamine]",1670,514,1170,682,1590,795,,,most metabolically stable compound,not clastogenic,well tolerated,190,> 10000,,,
